Literature values, collected in patent US11761043B2, “Machine assay and analysis for selecting antihypertensive drugs” (Geneticure Inc., priority 2014, dated 2023).

Key:
CYP2D6 [1] = conditions: individuals homozygous for adenine (AA) at rs3892097 vs subjects not homozygous AA
renin = conditions: cytosine (guanine) variant of renin rs12750834
CYP2D6 [2] = molecular target: CYP2D6 (Homo sapiens, UniProt P10635); conditions: in vivo
CYP2D6 (Homo sapiens, UniProt P10635), sequence (P10635 whole entry): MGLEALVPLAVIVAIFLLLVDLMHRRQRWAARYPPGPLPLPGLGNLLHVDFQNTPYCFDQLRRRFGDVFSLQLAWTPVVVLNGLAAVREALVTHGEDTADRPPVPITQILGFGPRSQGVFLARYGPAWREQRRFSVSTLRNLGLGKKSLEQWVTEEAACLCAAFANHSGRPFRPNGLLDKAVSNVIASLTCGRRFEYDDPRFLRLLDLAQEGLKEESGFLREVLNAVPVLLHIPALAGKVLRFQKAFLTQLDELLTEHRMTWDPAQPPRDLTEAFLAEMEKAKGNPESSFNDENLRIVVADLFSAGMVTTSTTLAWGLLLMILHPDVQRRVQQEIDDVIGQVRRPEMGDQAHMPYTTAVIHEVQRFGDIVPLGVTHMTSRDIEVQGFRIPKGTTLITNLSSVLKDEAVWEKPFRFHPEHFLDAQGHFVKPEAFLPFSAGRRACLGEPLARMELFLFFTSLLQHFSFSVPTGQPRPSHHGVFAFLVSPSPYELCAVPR

Compound	plasma levels after taking these drugs (CYP2D6 [1])	other results
CC(C)NCC(O)COc1cccc2ccccc12 (stereo not shown) [propranolol]	higher plasma levels	–
CCCCC(=O)N(Cc1ccc(-c2ccccc2-c2nnn[nH]2)cc1)[C@H](C(=O)O)C(C)C [valsartan]	–	reduction in blood pressure upon administration (renin): greater reduction in blood pressure
COCCc1ccc(OCC(O)CNC(C)C)cc1 (stereo not shown) [metoprolol]	higher plasma levels	–
COc1ccccc1OCCNCC(O)COc1cccc2[nH]c3ccccc3c12 (stereo not shown) [carvedilol]	–	requirement of CYP2D6 for metabolism (CYP2D6 [2]): do not require CYP2D6 for their metabolism
